Experimental data as given in PMC8418037, “Immunomodulatory effect of standardized C. asiatica extract on a promotion of regulatory T cells in rats” (BMC Complementary Medicine and Therapies, 2021).

Tests used:
[1] = rat, in vivo
Experimental: Rats, weighing more than 400 g, were put in metabolic cages and fasted overnight with free access to water before experiments. […] The intravenous preparations were freshly dissolved in 20% DMSO/NSS for injection. The oral preparations were freshly prepared by suspending the test compound in 0.5% CMC. To reduce pain and injury during drug administration and blood collection, rats were anesthetized with 5% isoflurane by chamber induction. Serial blood samples (300 μL) were collected at 0, 5, 15, and 30 min, and at 1, 2, 4, 8, and 24 h after dosing. Blood samples were centrifuged at 5000 g for 10 min, and plasma was collected and stored at − 20 °C until analysis. Determination of aspartate transaminase (AST), alanine transaminase (ALT), and creatinine levels were performed at pre-dosing, and at 0 h and 24 h after dosing. Creatinine level was determined by enzymatic Roche Cobas 6000 analyzer. In this enzymatic method creatinine is converted to creatine under the activity of creatininase. Creatine is then acted upon by creatinase to form sarcosine and urea. Sarcosine oxidase converts sarcosine to glycine and hydrogen peroxide, and the hydrogen peroxide reacts with chromophore in the presence of peroxidase to produce a color product that is measured at 546 nm (secondary wavelength = 700 nm). This is an endpoint reaction that agrees well with recognized HPLC methods, and it has the advantage over Jaffe picric acid-based methods that are susceptible to interferences from non-creatinine chromogens. For tissue collection, the rats was euthanized with isoflurane after oral dosing the test compound at 100 mg/kg for 7 days. After the dead was confirmed, spleen and blood were immediately collected, washed with normal saline solution, and send to immunology laboratory for further experiments. The control group received oral gavage of 0.5% CMC as vehicle control. All animal procedures were complied with the ethical principles and guidelines for the use of animals (National Research Council of Thailand, 2015).
All pharmacokinetic parameters were computed by non-compartmental analysis using PK Solution 2.0 software (Summit Research Service, USA). […] The absolute oral bioavailability was calculated as (AUCp.o. ÷ dose p.o.) ÷ (AUCi.v. ÷ dose i.v.). Pharmacokinetic data are presented as mean ± standard deviation. Blood chemical parameters were analyzed by Mann–Whitney U-test to compare the significance of differences between pre-dosing and 24 h post-dosing, with a p-value of less than 0.05. All statistical analyses were calculated using SPSS version 16 (SPSS, Inc., USA). […] The data were analyzed with an unpaired Student’s t-test. A p-value of < 0.05 was considered statistically significant.

[2] = test system: multidrug-resistant protein 2; design: method as in PMID 24091240; settings: affecting the level of absorbed compound; cited from earlier work
P-glycoprotein = test system: P-glycoprotein; design: method as in PMID 24091240; settings: affecting the level of absorbed compound; cited from earlier work

C[C@H]1[C@H](C)CC[C@]2(C(=O)O[C@@H]3O[C@H](CO[C@@H]4O[C@H](CO)[C@@H](O[C@@H]5O[C@@H](C)[C@H](O)[C@@H](O)[C@H]5O)[C@H](O)[C@H]4O)[C@@H](O)[C@H](O)[C@H]3O)CC[C@]3(C)C(=CC[C@@H]4[C@@]5(C)C[C@@H](O)[C@H](O)[C@@](C)(CO)[C@@H]5[C@H](O)C[C@]43C)[C@H]12 [Madecassoside, madecassoside]
ALT, Post-dose (24 h) [1]: 24.00 ± 4.85 U/L
ALT, Pre-dose (0 h) [1]: 23.80 ± 2.59 U/L
AST, Post-dose (24 h) [1]: 63.20 ± 16.81 U/L
AST, Pre-dose (0 h) [1]: 46.20 ± 4.87 U/L
Creatinine, Post-dose (24 h) [1]: 0.67 ± 0.05 mg/dL
Creatinine, Pre-dose (0 h) [1]: 0.64 ± 0.04 mg/dL
Physical appearance, Post-dose (24 h) [1]: Normal
Physical appearance, Pre-dose (0 h) [1]: Normal
Substrate for multidrug-resistant protein 2 [2]: substrate
Substrate for P-glycoprotein (P-glycoprotein): substrate
